The test system of the assay is Cylas formicarius. Description: Insecticidal activity in adult Cylas formicarius elegantulus measured per insect after 24 hrs. Type of assay: functional.
Take `C[C@@H]1CC(c2ccoc2)=C[C@]2(C1)C[C@@H](C)C(=O)O2` [CAPRARIOLIDE B]: the LD50 worked out at 1.102 mg.

The compound `C[C@@H]1CC(c2ccoc2)=C[C@]2(C1)C[C@H](C)C(=O)O2` [CAPRARIOLIDE A] yielded an LD50 of 0.902 mg.

The compound `C=CCc1ccc(O)c(OC)c1` [EUGENOL] yielded an LD50 of 0.605 mg.

Values taken from ChEMBL document CHEMBL1155623, “New skeletal sesquiterpenoids, caprariolides A-D, from Capraria biflora and their insecticidal activity” (2000).
